Measured values taken from patent US20230278972A1, “SUBSTITUTED HALOALKYL SULFONANILIDE HERBICIDES” (FMC Corporation, priority 2020, published 2023).

Columns and labels:
Assay type in all cases: in vivo
[1] = system: blackgrass (Alopecurus myosuroides); test: Test A1 preemergence, blackgrass
Method in brief: (§1)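 Herbicidal response was scored on plants treated either preemergence, by directed spray onto soil of a loam–sand blend after sowing, or postemergence on potted plants at the one- to two-leaf stage, 2–10 cm high. Test chemicals were carried in a non-phytotoxic solvent mix with surfactant.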

[2] = system: corn (Zea mays); test: Test A1 preemergence, corn
Method in brief: (§2)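 Postemergence species (ragweed, Palmer pigweed, wild oat) were sprayed at one- to two-leaf stage, 2 to 10 cm tall. Corn was treated preemergence by directed soil spray. Both used a loam soil/sand blend and compounds in a non-phytotoxic solvent mixture with surfactant.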

[3] = system: Foxtail, Giant (giant foxtail, Setaria faberi); test: Test A1 preemergence, Foxtail, Giant
Method in brief: as §1

[4] = system: goosegrass (Eleusine indica); test: Test A1 preemergence, goosegrass
Method in brief: as §1

[5] = system: kochia (Bassia scoparia); test: Test A1 preemergence, kochia
Method in brief: as §1

[6] = system: Oat, Wild (wild oat, Avena fatua); test: Test A1 preemergence, Oat, Wild
Method in brief: as §1

[7] = system: Pigweed, Palmer (palmer amaranth, palmer pigweed, Amaranthus palmeri); test: Test A1 preemergence, Pigweed, Palmer
Method in brief: as §1

[8] = system: ragweed (common ragweed, Ambrosia artemisiifolia); test: Test A1 preemergence, ragweed
Method in brief: as §1

[9] = system: Ryegrass, Italian (Italian ryegrass, Lolium multiflorum); test: Test A1 preemergence, Ryegrass, Italian
Method in brief: as §1

[10] = system: soybean (Glycine max); test: Test A1 preemergence, soybean
Method in brief: as §1

[11] = system: wheat (Triticum aestivum); test: Test A1 preemergence, wheat
Method in brief: as §1

[12] = system: blackgrass (Alopecurus myosuroides); test: Test A1 postemergence, blackgrass; conditions: Postemergence, 0 to 100 scale (0 no effect, 100 complete control)
Method in brief: (§3)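 Plants were grown in a loam soil/sand blend, with test chemicals formulated in a non-phytotoxic solvent mixture containing surfactant. Preemergence treatment (corn) was a directed soil spray at planting. Postemergence treatment was applied to plants 2 to 10 cm tall at the one- to two-leaf stage.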

[13] = system: corn (Zea mays); test: Test A1 postemergence, corn; conditions: Postemergence
Method in brief: as §1

[14] = system: Foxtail, Giant (giant foxtail, Setaria faberi); test: Test A1 postemergence, Foxtail, Giant; conditions: Postemergence
Method in brief: as §3

[15] = system: goosegrass (Eleusine indica); test: Test A1 postemergence, goosegrass; conditions: Postemergence
Method in brief: as §3

[16] = system: kochia (Bassia scoparia); test: Test A1 postemergence, kochia; conditions: Postemergence
Method in brief: as §3

[17] = system: Oat, Wild (wild oat, Avena fatua); test: Test A1 postemergence, Oat, Wild; conditions: Postemergence
Method in brief: as §2

[18] = system: Pigweed, Palmer (palmer amaranth, palmer pigweed, Amaranthus palmeri); test: Test A1 postemergence, Pigweed, Palmer; conditions: Postemergence
Method in brief: as §2

[19] = system: ragweed (common ragweed, Ambrosia artemisiifolia); test: Test A1 postemergence, ragweed; conditions: Postemergence
Method in brief: as §2

[20] = system: Ryegrass, Italian (Italian ryegrass, Lolium multiflorum); test: Test A1 postemergence, Ryegrass, Italian; conditions: Postemergence
Method in brief: as §3

[21] = system: soybean (Glycine max); test: Test A1 postemergence, soybean; conditions: Postemergence
Method in brief: as §3

[22] = system: wheat (Triticum aestivum); test: Test A1 postemergence, wheat; conditions: Postemergence
Method in brief: as §3

[23] = system: galium (catchweed bedstraw, Galium aparine); test: Test A1 postemergence, galium; conditions: Postemergence
Method in brief: as §3

[24] = system: horseweed (Erigeron canadensis); test: Test A1 postemergence, horseweed; conditions: Postemergence
Method in brief: as §3

[25] = system: barnyardgrass (Echinochloa crus-galli); test: Test B1 flooded paddy test, barnyardgrass; conditions: 250 g ai/ha, Flood, applied to paddy water, 2-leaf stage, visually evaluated after 10 to 14 days
Description: (§4) A dash (-) response means no test result.

[26] = system: ducksalad (Heteranthera limosa); test: Test B1 flooded paddy test, ducksalad; conditions: 250 g ai/ha, Flood, applied to paddy water, 2-leaf stage, visually evaluated after 10 to 14 days
Description: as §4

[27] = system: rice (Oryza sativa); test: Test B1 flooded paddy test, rice; conditions: 250 g ai/ha, Flood, applied to paddy water, 2-leaf stage, visually evaluated after 10 to 14 days
Description: as §4

[28] = 31 g ai/ha, 0 to 100 scale (0 no effect, 100 complete control)
[29] = 125 g ai/ha, 0 to 100 scale, 0 no effect, 100 complete control
[30] = 31 g ai/ha, 0 to 100 scale (0 no effect, 100 complete control), 10 days

**Q.** How did the “Plant response rating, Blackgrass” value [1, 28] turn out when `CCOC(=O)N(c1cc(C(=O)N2CCCCC2)c(C)c(C)c1C)S(=O)(=O)C(F)(F)F` [Compound 330, Ethyl N-[(trifluoromethyl)sulfonyl]-N-[2,3,4-trimethyl-5-(1-piperidinylcarbonyl)phenyl]carbamate] was run?
**A.** Its value is 0.

**Q.** And the “Plant response rating, Blackgrass” value [1, 29]?
**A.** Its value is 30.

**Q.** What about the “Plant response rating, Corn” value [2, 28] of the same molecule?
**A.** Its value is 0.

**Q.** What about the “Plant response rating, Corn” value [2, 29] of the same molecule?
**A.** Its value is 0.

**Q.** And the “Plant response rating, Foxtail, Giant” value [3, 28]?
**A.** The value was 80.

**Q.** And the “Plant response rating, Foxtail, Giant” value [3, 29]?
**A.** Its value is 100.

**Q.** And the “Plant response rating, Goosegrass” value [4, 28]?
**A.** The value was 40.

**Q.** What about the “Plant response rating, Goosegrass” value [4, 29] of the same molecule?
**A.** The value was 100.

**Q.** And the “Plant response rating, Kochia” value [5, 28]?
**A.** The value was 10.

**Q.** And the “Plant response rating, Kochia” value [5, 29]?
**A.** Its value is 40.

**Q.** What about the “Plant response rating, Oat, Wild” value [6, 28] of the same molecule?
**A.** Its value is 0.

**Q.** And the “Plant response rating, Oat, Wild” value [6, 29]?
**A.** Its value is 20.

**Q.** And the “Plant response rating, Pigweed, Palmer” value [7, 28]?
**A.** Its value is 70.

**Q.** What about the “Plant response rating, Pigweed, Palmer” value [7, 29] of the same molecule?
**A.** Its value is 80.

**Q.** What about the “Plant response rating, Ragweed” value [8, 28] of the same molecule?
**A.** The value was 40.

**Q.** And the “Plant response rating, Ragweed” value [8, 29]?
**A.** The value was 70.

**Q.** And the “Plant response rating, Ryegrass, Italian” value [9, 28]?
**A.** The value was 0.

**Q.** And the “Plant response rating, Ryegrass, Italian” value [9, 29]?
**A.** Its value is 90.

**Q.** And the “Plant response rating, Soybean” value [10, 28]?
**A.** Its value is 0.

**Q.** And the “Plant response rating, Soybean” value [10, 29]?
**A.** Its value is 30.

**Q.** And the “Plant response rating, Wheat” value [11, 28]?
**A.** Its value is 0.

**Q.** What about the “Plant response rating, Wheat” value [11, 29] of the same molecule?
**A.** The value was 30.

**Q.** And the “Plant response rating, Blackgrass” value ([12]; 31 g ai/ha, 10 days)?
**A.** Its value is 0.

**Q.** What about the “Plant response rating, Blackgrass” value ([12]; 125 g ai/ha) of the same molecule?
**A.** The value was 40.

**Q.** And the “Plant response rating, Corn” value [13, 30]?
**A.** Its value is 0.

**Q.** What about the “Plant response rating, Corn” value ([13]; 125 g ai/ha, 0 to 100 scale) of the same molecule?
**A.** The value was 10.

**Q.** And the “Plant response rating, Foxtail, Giant” value [14, 30]?
**A.** The value was 20.

**Q.** What about the “Plant response rating, Foxtail, Giant” value ([14]; 125 g ai/ha, 0 to 100 scale) of the same molecule?
**A.** Its value is 80.

**Q.** And the “Plant response rating, Goosegrass” value [15, 30]?
**A.** The value was 0.

**Q.** And the “Plant response rating, Goosegrass” value ([15]; 125 g ai/ha, 0 to 100 scale)?
**A.** Its value is 40.

**Q.** What about the “Plant response rating, Kochia” value [16, 30] of the same molecule?
**A.** The value was 10.

**Q.** And the “Plant response rating, Kochia” value ([16]; 125 g ai/ha, 0 to 100 scale)?
**A.** The value was 50.

**Q.** What about the “Plant response rating, Oat, Wild” value [17, 30] of the same molecule?
**A.** Its value is 0.

**Q.** And the “Plant response rating, Oat, Wild” value ([17]; 125 g ai/ha, 0 to 100 scale)?
**A.** The value was 10.

**Q.** What about the “Plant response rating, Pigweed, Palmer” value [18, 30] of the same molecule?
**A.** The value was 0.

**Q.** What about the “Plant response rating, Pigweed, Palmer” value ([18]; 125 g ai/ha, 0 to 100 scale) of the same molecule?
**A.** The value was 50.

**Q.** And the “Plant response rating, Ragweed” value [19, 30]?
**A.** The value was 50.

**Q.** What about the “Plant response rating, Ragweed” value ([19]; 125 g ai/ha, 0 to 100 scale) of the same molecule?
**A.** The value was 80.

**Q.** And the “Plant response rating, Ryegrass, Italian” value [20, 30]?
**A.** Its value is 0.

**Q.** What about the “Plant response rating, Ryegrass, Italian” value ([20]; 125 g ai/ha, 0 to 100 scale) of the same molecule?
**A.** The value was 0.

**Q.** What about the “Plant response rating, Soybean” value [21, 30] of the same molecule?
**A.** Its value is 90.

**Q.** And the “Plant response rating, Soybean” value ([21]; 125 g ai/ha, 0 to 100 scale)?
**A.** The value was 80.

**Q.** And the “Plant response rating, Wheat” value [22, 30]?
**A.** The value was 0.

**Q.** What about the “Plant response rating, Wheat” value ([22]; 125 g ai/ha, 0 to 100 scale) of the same molecule?
**A.** The value was 30.

**Q.** What about the “Plant response rating, Galium” value [23, 30] of the same molecule?
**A.** Its value is 50.

**Q.** And the “Plant response rating, Galium” value ([23]; 125 g ai/ha, 0 to 100 scale)?
**A.** Its value is 60.

**Q.** And the “Plant response rating, Horseweed” value [24, 30]?
**A.** The value was 80.

**Q.** What about the “Plant response rating, Horseweed” value ([24]; 125 g ai/ha, 0 to 100 scale) of the same molecule?
**A.** Its value is 90.

**Q.** What about the “Plant response rating, Barnyardgrass (0 to 100 scale, 0 is no effect, 100 is complete control)” value [25] of the same molecule?
**A.** The value was 95.

**Q.** And the “Plant response rating, Ducksalad (0 to 100 scale, 0 is no effect, 100 is complete control)” value [26]?
**A.** Its value is 95.

**Q.** What about the “Plant response rating, Rice (0 to 100 scale, 0 is no effect, 100 is complete control)” value [27] of the same molecule?
**A.** Its value is 0.
